Laboratory results taken from patent US9783537B2, “3-(4-ethylnylphenyl) pyridopyrimidinone compounds and process for preparation thereof useful as potential anticancer agents” (Council of Scientific & Industrial Research, priority 2013, dated 2017).
Like-named read-outs stand apart in the source and are kept apart here.

How the values were obtained:
MDA-MB-231/ATCC = assay: SRB 48 h growth assay, Breast MDA-MB-231/ATCC; assay type: cell-based, human; conditions: Homo sapiens, read-out: Log10 LC50 (converted)
NCI-H226 = assay: SRB 48 h growth assay, Non-small Cell Lung NCI-H226; assay type: cell-based, human; conditions: Homo sapiens
K-562 = assay: SRB 48 h growth assay, Leukemia K-562; assay type: cell-based, human
CCRF-CEM = assay: SRB 48 h growth assay, Leukemia CCRF-CEM; assay type: cell-based, human; conditions: Homo sapiens
SK-MEL-5 = assay: SRB 48 h growth assay, Melanoma SK-MEL-5; assay type: cell-based, human; conditions: Homo sapiens, SK-MEL-5, Melanoma
HCT-116 = assay: SRB 48 h growth assay, Colon HCT-116; assay type: cell-based, human; conditions: Homo sapiens, HCT-116, Colon
RPMI-8226 = assay: SRB 48 h growth assay, Leukemia RPMI-8226; assay type: cell-based, human; conditions: Homo sapiens, RPMI-8226, Leukemia
PC-3 = assay: SRB 48 h growth assay, Prostate PC-3; assay type: cell-based, human; conditions: Homo sapiens, PC-3, Prostate
HOP-92 = assay: SRB 48 h growth assay, Non-small Cell Lung HOP-92; assay type: cell-based, human; conditions: Homo sapiens, HOP-92, Non-small Cell Lung
NCI/ADR-RES = assay: SRB 48 h growth assay, Ovarian NCI/ADR-RES; assay type: cell-based, human; conditions: Homo sapiens
NCI-H522 = assay: SRB 48 h growth assay, Non-small Cell Lung NCI-H522; assay type: cell-based, human; conditions: Homo sapiens
SK-OV-3 = assay: SRB 48 h growth assay, Ovarian SK-OV-3; assay type: cell-based, human; conditions: Homo sapiens, SK-OV-3, Ovarian
[1] = tested on: seven ovarian cancer cell lines (IGROV1, OVCAR-3, OVCAR-4, OVCAR-5, OVCAR-8, NCI/ADR-RES and SK-OV-3); assay: in vitro anticancer activity, ovarian panel; assay type: cell-based; conditions: Homo sapiens, exposure at least 48 h, read-out: GI50, range over panel
[2] = tested on: six CNS cancer cell line (SF-268, SF-295, SF-539, SNB-19, SNB-75 and U251); assay: in vitro anticancer activity, CNS panel; assay type: cell-based; conditions: Homo sapiens; six CNS cancer cell lines, exposure at least 48 h; read-out: GI50, range over panel
OVCAR-8 = assay: SRB 48 h growth assay, Ovarian OVCAR-8; assay type: cell-based, human; conditions: Homo sapiens, OVCAR-8, Ovarian
[3] = tested on: seven colon cancer cell line (COLO 205, HCC-2998, HCT-116, HCT-15, HT29, KM12 and SW-620); assay: in vitro anticancer activity, colon panel; assay type: cell-based; conditions: Homo sapiens; seven colon cancer cell lines, exposure at least 48 h; read-out: GI50, range over panel
SNB-75 = assay: SRB 48 h growth assay, CNS SNB-75; assay type: cell-based, human; conditions: Homo sapiens, SNB-75, CNS
TK-10 = assay: SRB 48 h growth assay, Renal TK-10; assay type: cell-based, human; conditions: Homo sapiens, TK-10, Renal, read-out: Log10 LC50 (converted)
UACC-62 = assay: SRB 48 h growth assay, Melanoma UACC-62; assay type: cell-based, human; conditions: Homo sapiens, UACC-62, Melanoma
OVCAR-4 = assay: SRB 48 h growth assay, Ovarian OVCAR-4; assay type: cell-based, human; conditions: Homo sapiens, OVCAR-4, Ovarian
OVCAR-3 = assay: SRB 48 h growth assay, Ovarian OVCAR-3; assay type: cell-based, human; conditions: Homo sapiens, OVCAR-3, Ovarian
A549/ATCC = assay: SRB 48 h growth assay, Non-small Cell Lung A549/ATCC; assay type: cell-based, human; conditions: Homo sapiens, read-out: Log10 LC50 (converted)
786-0 = assay: SRB 48 h growth assay, Renal 786-0; assay type: cell-based, human; conditions: Homo sapiens, 786-0, Renal
M14 = assay: SRB 48 h growth assay, Melanoma M14; assay type: cell-based, human; conditions: Homo sapiens
[4] = in vitro anticancer activity, melanoma panel; assay type: cell-based; conditions: Homo sapiens; nine melanoma cell lines, exposure at least 48 h; read-out: GI50, range over panel
UACC-257 = assay: SRB 48 h growth assay, Melanoma UACC-257; assay type: cell-based, human; conditions: Homo sapiens, UACC-257, Melanoma
[5] = read-out: Growth Inhibition GI50
[6] = read-out: Log10 GI50 (converted)
[7] = read-out: Log10 LC50 (converted)

SMILES: C#Cc1ccc(-n2c(/C=C/c3ccc(Cl)c(F)c3)nc3ncccc3c2=O)cc1 [4g, (E)-2-(4-chloro-3-fluorostyryl)-3-(4-ethynylphenyl)pyrido[2,3-d]pyrimidin-4(3H)-one]
- CC50 (MDA-MB-231/ATCC): > 100000 nM
- GI50 (NCI-H226; [5]): 350 nM
- GI50 (NCI-H226; [6]): 355 nM
- GI50 (K-562; Homo sapiens, K562, K-562, Leukemia, read-out: Growth Inhibition GI50): 330 nM
- GI50 (K-562; Homo sapiens, K562, K-562, Leukemia, read-out: Log10 GI50 (converted)): 339 nM
- CC50 (K-562; Homo sapiens, K562, K-562, Leukemia, read-out: Log10 LC50 (converted)): > 100000 nM
- Log10 TGI50 (K-562; K-562, Leukemia): >−4.00
- CC50 (CCRF-CEM; CCKF-CEM, read-out: Log10 LC50 (converted)): > 100000 nM
- GI50 (CCRF-CEM; [5]): 290 nM
- GI50 (CCRF-CEM; [6]): 288 nM
- GI50 (SK-MEL-5; [5]): 220 nM
- GI50 (SK-MEL-5; [6]): 229 nM
- GI50 (HCT-116; [5]): 330 nM
- GI50 (HCT-116; [6]): 331 nM
- GI50 (RPMI-8226; [5]): 250 nM
- GI50 (RPMI-8226; [6]): 257 nM
- CC50 (RPMI-8226; [7]): > 100000 nM
- GI50 (PC-3; [5]): 340 nM
- GI50 (PC-3; [6]): 347 nM
- CC50 (PC-3; [7]): > 100000 nM
- GI50 (HOP-92; [5]): 200 nM
- GI50 (HOP-92; [6]): 204 nM
- GI50 (NCI/ADR-RES; [5]): 410 nM
- GI50 (NCI/ADR-RES; [6]): 417 nM
- CC50 (NCI/ADR-RES; [7]): > 100000 nM
- GI50 (NCI-H522; [5]): 270 nM
- GI50 (NCI-H522; [6]): 275 nM
- GI50 (SK-OV-3; [5]): 340 nM
- GI50 (SK-OV-3; [6]): 347 nM
- CC50 (SK-OV-3; [7]): > 100000 nM
- GI50 [1]: 300 to 480 nM
- GI50 [2]: 340 nM
- GI50 (OVCAR-8; [5]): 350 nM
- GI50 (OVCAR-8; [6]): 355 nM
- CC50 (OVCAR-8; [7]): > 100000 nM
- GI50 [3]: 330 to 370 nM
- GI50 (SNB-75; [5]): 340 nM
- GI50 (SNB-75; [6]): 339 nM
- CC50 (TK-10): > 100000 nM
- GI50 (UACC-62; [5]): 480 nM
- GI50 (UACC-62; [6]): 490 nM
- GI50 (OVCAR-4; [5]): 480 nM
- GI50 (OVCAR-4; [6]): 479 nM
- GI50 (OVCAR-3; [5]): 300 nM
- GI50 (OVCAR-3; [6]): 302 nM
- CC50 (A549/ATCC): > 100000 nM
- GI50 (786-0; [5]): 360 nM
- GI50 (786-0; [6]): 372 nM
- GI50 (M14; [5]): 300 nM
- GI50 (M14; [6]): 302 nM
- GI50 [4]: 190 to 540 nM
- GI50 (UACC-257; [5]): 540 nM
- GI50 (UACC-257; [6]): 537 nM
